From patent US9963701B2, “Pharmaceutical composition for treatment of radiation- or drug-resistant cancer comprising HRP-3 inhibitor” (KOREA INSTITUTE OF RADIOLOGICAL & MEDICAL SCIENCES, priority 2013, dated 2018)
“Also recorded” adds a separate entry of the source.

Tests used:
Type in all cases: cell-based, human
[1] = test system: IκB, c-Myc, Noxa; test: Western blot of IκB, c-Myc, Noxa in H1299 cells; conditions: siHRP-3-treated H1299 cells
Procedure: Specifically, a cell lysate obtained by lysing the scrambled siRNA- or siHRP-3-treated H1299 cells cultured in Example 6-2 was analyzed by Western blot using anti-HRP-3 antibodies, anti-IκB antibodies (Santa Cruz Biotechnology Inc., Santa Cruz, Calif., USA), anti-c-Myc antibodies (Calbiochem, San Diego, Calif., USA) and anti-Noxa antibodies (Calbiochem, San Diego, Calif., USA). Herein, β-actin was used as a loading control (FIG. 9A; left). As control cells, H1299 cells were treated with scrambled siRNA alone.
H1299 cells subjected to the inhibition of HRP-3 expression and radiation were obtained in the same manner as described in Example 6-4, except that radiation alone, was performed as anticancer treatment. The thus obtained H1299 cells were lysed to obtain a cell lysate. The expression levels of IκB, c-Myc and Noxa were measured in the same manner as described in Example 8-1, except that the thus obtained lysate was used, and NF-κB activity was also measured in the same manner as described in Example 8-1 (FIG. 9B). As control cells, H1299 cells treated with scrambled siRNA alone were used.
The thus obtained cells were lysed to obtain a cell lysate. The expression levels of IκB, c-Myc and Noxa were measured by Western blot analysis in the same manner as described in Example 8-1, except that the cell lysate was used. Also, NF-κB activity was measured by a reporter gene assay (FIG. 9C). […]

[2] = test system: NF-κB; test: NF-κB reporter gene assay (pNF-κB-luc) in H1299 cells; conditions: siHRP-3-treated H1299 cells, 2 μM BAY 11-7082, 48 hours
Procedure: In addition, the activity of NF-κB in the scrambled siRNA- or siHRP-3-treated H1299 cells was measured by a reporter gene assay using Dual-Reporter™. Specifically, H1299 cells were transfected with 0.5 μg plasmid DNA (pNF-κB-luc; Stratagene, Cambridge, UK) in Dual-Reporter™, and then the luciferase activity in the cells was measured using a luminometer, and the activity of NF-κB was measured at various protein concentrations (FIG. 9A; right).

[3] = test system: ROS; test: ROS production by FACS analysis using DCF-DA in A549 cells; conditions: 1 mM NAC, 48 hours
Procedure: Thus, it was predicted that HRP-3 would influence ROS production, and the following experiment was performed in order to confirm this prediction. […] The level of ROS produced in the cells was determined by FACS analysis using 10 nM DCF-DA (FIG. 4C).
Further, A549 cells were transfected with 100 nM scrambled siRNA or HRP-3 siRNA without or with exposure to 10 Gy radiation and cultured, and the level of ROS produced in the cells was assessed by FACS analysis using 10 nM DCF-DA (FIG. 4D).

[4] = test system: p53, pp53, PUMA, cleaved PARP; test: Western blot of cleaved PARP, p53, pp53, PUMA in A549 cells; conditions: siHRP-3-transfected A549 cells, 1 mM NAC
Source text: Additionally, the effect of p53 on the induction of apoptosis was examined. […] Next, the levels of HRP-3, cleaved PARP, p53, pp53, and PUMA proteins produced in the cells were detected by Western blot analysis (FIG. 5D).

[5] = test system: ROS; test: ROS production by DCF-DA (confocal, FACS) in H1299 cells; conditions: 3 mM NAC
Procedure: According to a known method, the thus obtained H1299 cells were treated with 10 nM DCF-DA (2′,7′-dichlorofluorescein diacetate) for 20 minutes, and the produced ROS was detected (M. J. Kim, et al., Cancer Lett, 339:15-24, 2013) (FIG. 8D). The detection of ROS was performed by observing the DCF-DA-stained cells with a laser scanning confocal microscope and analyzing the DCF-DA-stained cells by FACS analysis to determine the production of ROS.

[6] = test system: H460 cells; test: Apoptosis by FACS analysis in H460 cells; conditions: 0.1 μg/ml doxorubicin or 5 ng/ml vinblastine, 48 hours
Procedure: (§1) Human NSCLC cell lines (A549 and H460) were purchased from the ATCC and cultured in RPMI-1640 medium containing 10% FBS, 50 μg/ml streptomycin, and 50 units/ml penicillin. The cultured cells were irradiated using a ^137Cs-ray source (Atomic Energy of Canada, Ltd., Canada) at a dose rate of 3.81 Gy/min and were treated with 0.1 μg/ml doxorubicin or 5 ng/ml vinblastine. The treated cells were treated with trypsin, washed with PBS, stained with annexin V and propidium iodide, and then analyzed by FACS using a flow cytometer to measure apoptosis (FIG. 1A).
(§2) Specifically, while each type of H460 cells and H1299 cells were inoculated into a culture dish at a density of 3.5×10^5 cells/cm^2 and cultured in RPMI-1640 medium, each type of cell was radiated with 0 and 10 Gy of ^137Cs-rays, or the cell culture was treated with 0 and 0.1 μg/ml of doxorubicin or 0 and 5 ng/ml of vinblastine (Sigma, St. Louis, Mo., USA) and cultured. Next, the death rate of the cells was determined by FACS analysis according to a known method (M. J. Kim, et al., Cancer Lett, 339:15-24, 2013) (FIG. 7A).

[7] = test system: H1299 cells; test: Apoptosis by FACS analysis in H1299 cells; conditions: 0.1 μg/ml doxorubicin or 5 ng/ml vinblastine, 48 hours
Procedure: as §2
The inhibition of HRP-3 expression in H1299 cells was performed according to the method in Example 6-2, and the H1299 cells, which were inhibited of HRP-3 expression, were subjected to anticancer treatment (radiation, doxorubicin treatment or vinblastine treatment), and their apoptotic rate was measured (FIG. 7D).
The morphological change and apoptotic rate of H1299 cells were measured in the same manner as described in Example 6-4, except that radiation alone was performed as anticancer treatment (FIG. 8A).

[8] = test system: HRP-3; test: HRP-3 protein level after radiation or drug treatment in H1299 cells (Western blot); conditions: 0.1 μg/ml doxorubicin or 5 ng/ml vinblastine
Procedure: While H1299 cells were cultured in RPMI-1640 medium, the cells were radiated with 10 Gy of ^137Cs-rays, or the cell culture was treated with 0.1 μg/ml doxorubicin or 5 ng/ml vinblastine, and the change in the expression level of HRP-3 as a function of time for a culture time of 48 hours was analyzed by Western blotting or immunofluorescence staining (FIGS. 6D and 6E).

[9] = test system: A549 cells; test: Apoptosis by FACS analysis (annexin V / propidium iodide) in A549 cells; conditions: 0.1 μg/ml doxorubicin or 5 ng/ml vinblastine, 48 hours
Procedure: as §1
In addition, A549 cells were transfected with 100 nM scrambled siRNA or HRP-3 siRNA and cultured for 2 days. Then, changes in the morphology of the cells were observed under an optical microscope, and the death rate of the cells was measured by FACS analysis (FIG. 2D). Also, the levels of two apoptotic markers (cleaved PARP and active caspase-3) were determined by Western blotting (FIG. 2E).
In order to examine this correlation, the effect of HRP-3 in the A549 cells treated with radiation or the drug was analyzed. Specifically, A549 cells were transfected with 100 nM scrambled siRNA or HRP-3 siRNA, and then treated with 10 Gy radiation, 0.1 μg/ml doxorubicin or 5 ng/ml vinblastine and cultured. The death rate of the cultured cells was determined by FACS analysis (FIG. 3B).

| Structure (SMILES) | apoptotic rate [6] | apoptotic rate [7] | time after treatment at which level of HRP-3 peaked [8] [h] | resistance of A549 cells compared to H460 cells (apoptosis) [9] | further results |
| --- | --- | --- | --- | --- | --- |
| Cc1ccc(S(=O)(=O)/C=C/C#N)cc1 [BAY 11-7082] | – | – | – | – | IκB, c-Myc and Noxa expression changes due to inhibition of HRP-3 expression ([1]; 2 μM BAY 11-7082, 48 hours): levels similar to the control cells; increase in NF-κB activity due to inhibition of HRP-3 expression [2]: levels similar to the control cells |
| CC(=O)N[C@@H](CS)C(=O)O [NAC, N-acetyl cysteine] | – | – | – | – | IκB, c-Myc and Noxa expression changes due to inhibition of HRP-3 expression ([1]; 3 mM NAC, 48 hours): levels similar to the control cells; effect on ROS generation induced by inhibition of HRP-3 expression [3]: reduced; also recorded: inhibited; induction of cleaved PARP by HRP-3 deletion [4]: significantly decreased; p53 and PUMA levels [4]: dramatically decreased; ROS production after inhibition of HRP-3 expression and radiation [5]: decreased to that of control cells |
| COc1cccc2c1C(=O)c1c(O)c3c(c(O)c1C2=O)C[C@@](O)(C(=O)CO)C[C@@H]3O[C@H]1C[C@H](N)[C@H](O)[C@H](C)O1 [doxorubicin] | about 39% | about 23% | 12 | higher levels of resistance | – |
| CC[C@]1(O)C[C@@H]2CN(CCc3c([nH]c4ccccc34)[C@@](C(=O)OC)(c3cc4c(cc3OC)N(C)[C@H]3[C@@](O)(C(=O)OC)[C@H](OC(C)=O)[C@]5(CC)C=CCN6CC[C@]43[C@@H]65)C2)C1 [vinblastine] | about 43% | about 26% | 12 | higher levels of resistance | – |
